Some results are limits rather than exact numbers.

We go through 21 molecules from patent US11098041B2 (Merck Patent GmbH, priority 2014, dated 2021).

Experiment [1] has as its target BTK C481S (His-TEV-hsBTK(328-659)(C481S)) (Homo sapiens (Human), UniProt Q06187, C481S). Put plainly: Assay B: microfluidic off-chip mobility shift assay against BTK C481S enzyme. The settings on record: BTK C481S mutant. The format is biochemical. As to the method:
The mechanics of the assay platform are described by the vendor (PerkinElmer, Hopkinton, Mass.) on their website at the following URL: http://caliperls.com.
5 uL of enzyme buffer and 7.5 uL of ATP/KinKDR peptide substrate mix were added to Matrix (#4315) 384-well, sterile, flat-bottom polypropylene plates (Thermo Fisher Scientific, Hudson, N.H.) with 125 nL of serially diluted compounds prepared in 100% DMSO, and incubated for 90 min. at 25° C. Following the incubation period, reactions were terminated by adding 65 uL quench buffer consisting of 100 mM HEPES, pH 7.5, 0.015% Brij-35 (30%), 0.277% Coating Reagent #3 (PerkinElmer, Mountain View, Calif.), 5% DMSO. Terminated reactions were monitored at −2 PSI, −3000 V/−700 Volts in a LabChip 3000 plate reader from Caliper Life Sciences, a PerkinElmer Company (Hopkinton, Mass.), and the activity was quantified by laser-induced fluorescence measuring the charge/mass difference between substrate and product resulting from peptide phosphorylation. IC50 and efficacy were determined by plotting log [Inhibitor] vs. % Activity in GeneData Screener (Basel, Switzerland).

The next experiment concerns the target full-length human BTK (Homo sapiens (Human), UniProt Q06187). Kind of experiment: Assay A: microfluidic off-chip mobility shift assay against BTK enzyme. The format is biochemical. As to the method: Assay A: Microfluidic Off-Chip Mobility Shift Assay Protocol for Potency Assessment Against BTK Enzyme
The protocol below describes microfluidic, off-chip mobility shift kinase assay to measure inherent potency of compounds against BTK enzyme.
5 uL of enzyme buffer and 7.5 uL of ATP/kinKDR peptide substrate mix were added to Matrix (#115304) 384-well, sterile, polypropylene plates (Thermo Fisher Scientific, Hudson, N.H.) with 125 nL of serially diluted compounds prepared in 100% DMSO, and incubated for 90 min. at 27° C. Following the incubation period, reactions were stopped by adding 60 uL stop buffer consisting of 100 mM HEPES, pH 7.5, 0.015% Brij-35 (30%), 0.277% Coating Reagent #3 (Caliper Life Sciences, Mountain View, Calif.), 5% DMSO. Stopped reactions were monitored at −2 PSI, −3000 V/−700 V in a LabChip 3000 plate reader from Caliper Life Sciences, a PerkinElmer Company (Hopkinton, Mass.), and the activity was measured by off-chip mobility shift assay measuring the charge/mass difference between substrate and product resulting from peptide phosphorilation. IC50 and efficacy were determined by plotting log [Inhibitor] vs. % Activity in GeneData Screener (Basel. Switzerland).

Sequence of BTK C481S (His-TEV-hsBTK(328-659)(C481S)) (Q06187 328-659 C481S): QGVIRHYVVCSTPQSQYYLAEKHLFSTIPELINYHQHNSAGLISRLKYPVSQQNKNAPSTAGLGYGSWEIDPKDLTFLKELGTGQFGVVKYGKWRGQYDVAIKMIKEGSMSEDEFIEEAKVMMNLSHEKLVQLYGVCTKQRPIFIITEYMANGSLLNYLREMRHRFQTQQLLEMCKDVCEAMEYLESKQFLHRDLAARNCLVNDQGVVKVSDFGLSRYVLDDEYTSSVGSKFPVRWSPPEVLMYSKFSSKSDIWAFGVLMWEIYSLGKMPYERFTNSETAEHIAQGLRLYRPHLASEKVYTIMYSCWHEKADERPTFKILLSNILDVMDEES
Sequence of full-length human BTK (Q06187 whole entry): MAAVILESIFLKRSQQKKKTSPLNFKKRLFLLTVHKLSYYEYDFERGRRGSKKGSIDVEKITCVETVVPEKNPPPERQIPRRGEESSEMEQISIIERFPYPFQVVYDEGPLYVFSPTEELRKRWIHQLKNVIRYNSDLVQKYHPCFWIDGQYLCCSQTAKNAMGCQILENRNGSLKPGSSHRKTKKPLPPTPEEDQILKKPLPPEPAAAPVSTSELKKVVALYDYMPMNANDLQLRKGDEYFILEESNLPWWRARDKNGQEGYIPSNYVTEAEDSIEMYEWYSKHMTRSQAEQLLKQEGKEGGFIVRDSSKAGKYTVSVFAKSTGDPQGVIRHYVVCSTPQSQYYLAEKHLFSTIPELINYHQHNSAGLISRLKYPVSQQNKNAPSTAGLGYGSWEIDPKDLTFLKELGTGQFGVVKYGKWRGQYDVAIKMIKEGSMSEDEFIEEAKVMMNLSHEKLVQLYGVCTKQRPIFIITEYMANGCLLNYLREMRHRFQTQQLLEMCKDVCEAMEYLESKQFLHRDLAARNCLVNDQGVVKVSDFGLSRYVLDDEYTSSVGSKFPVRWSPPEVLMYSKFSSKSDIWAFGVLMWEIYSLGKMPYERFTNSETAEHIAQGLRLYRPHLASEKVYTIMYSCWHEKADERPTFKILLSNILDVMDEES

In the case of “5-tert-Butyl-[1,3,4]oxadiazole-2-carboxylic acid 2-fluoro-4-{2-[1-(2-morpholin-4-yl-ethyl)-1H-pyrazol-4-yl]-3H-imidazo[4,5-b]pyridin-7-yl}-benzylamide [Example 120]”, the IC50 (in experiment [1]; on full-length human BTK) was below 100 nM each time.

On to `COc1cccc(-c2nc3c(-c4cc(F)c(CNC(=O)c5noc(C(C)(C)C)n5)cc4C)ccnc3[nH]2)c1` [Example 78, 5-tert-Butyl-N-([2-fluoro-4-[2-(3-methoxyphenyl)-3H-imidazo[4,5-b]pyridin-7-yl]-5-methylphenyl]methyl)-1,2,4-oxadiazole-3-carboxamide], for which the IC50 (in experiment [1]; at full-length human BTK) was below 100 nM in each case.

In the case of `Cn1ccc(-c2nc3c(-c4ccc(CNC(=O)c5nnc(C(C)(C)C)o5)c(F)c4)ccnc3[nH]2)cc1=O` [Example 141, 5-tert-Butyl-[1,3,4]oxadiazole-2-carboxylic acid 2-fluoro-4-[2-(1-methyl-2-oxo-1,2-dihydro-pyridin-4-yl)-3H-imidazo[4,5-b]pyridin-7-yl]-benzylamide], the 50% inhibitory concentration (IC50) (in experiment [1]; on full-length human BTK) was below 100 nM each time.

For the molecule `C[C@@H]1CN(c2ccc(-c3nc4c(-c5cccc(NC(=O)c6noc(C(C)(C)C)n6)c5CO)ccnc4[nH]3)cc2)C[C@H](C)O1` [Example 47, 5-tert-Butyl-N-[3-(2-[4-[(2R,6S)-2,6-dimethylmorpholin-4-yl]phenyl]-3H-imidazo[4,5-b]pyridin-7-yl)-2-(hydroxymethyl)phenyl]-1,2,4-oxadiazole-3-carboxamide], the IC50 – broadly, the concentration that gives 50% inhibition – in experiment [1] was below 100 nM; at full-length human BTK it was 100 to 1000 nM.

In the case of `Cn1cc(-c2nc3c(-c4ccc(C5CCCN5C(=O)c5ccc(C(C)(C)C)cc5)cc4)ccnc3[nH]2)cn1` (stereo not drawn) [Example 121, (4-tert-Butyl-phenyl)-(2-{4-[2-(1-methyl-1H-pyrazol-4-yl)-3H-imidazo[4,5-b]pyridin-7-yl]-phenyl}-pyrrolidin-1-yl)-methanone], the IC50 (in experiment [1]; at full-length human BTK) was below 100 nM in each case.

`COc1cccnc1-c1nc2c(-c3ccc(CNC(=O)c4nc(C(C)(C)C)no4)c(F)c3)ccnc2[nH]1` [Example 152, 3-(tert-butyl)-N-(2-fluoro-4-(2-(3-methoxypyridin-2-yl)-3H-imidazo[4,5-b]pyridin-7-yl)benzyl)-1,2,4-oxadiazole-5-carboxamide]: the IC50 (in experiment [1]; at full-length human BTK) was below 100 nM each time.

Regarding `CC(C)(C)c1ccc(C(=O)NCc2ccc(-c3ccnc4[nH]c(C5CC5)nc34)cc2F)cc1` [Example 26, 4-tert-Butyl-N-[4-(2-cyclopropyl-3H-imidazo[4,5-b]pyridin-7-yl)-2-fluoro-benzyl]-benzamide], the IC50 (in experiment [1]; on full-length human BTK) was below 100 nM each time.

`CC(C)(C)c1nc(C(=O)NCc2ccc(-c3ccnc4[nH]c(-c5cnn(CCN6CCOCC6)c5)nc34)cc2F)no1` [Example 119, 5-tert-Butyl-[1,2,4]oxadiazole-3-carboxylic acid 2-fluoro-4-{2-[1-(2-morpholin-4-yl-ethyl)-1H-pyrazol-4-yl]-3H-imidazo[4,5-b]pyridin-7-yl}-benzylamide]: the IC50 (in experiment [1]; on full-length human BTK) was below 100 nM in each case.

As to `Cn1cc(-c2nc3c(-c4cnc(CNC(=O)c5nnc(C(C)(C)C)o5)c(F)c4)ccnc3[nH]2)cn1` [Example 13, 5-tert-Butyl-[1,3,4]oxadiazole-2-carboxylic acid {3-fluoro-5-[2-(1-methyl-1H-pyrazol-4-yl)-3H-imidazo[4,5-b]pyridin-7-yl]-pyridin-2-ylmethyl}-amide], the IC50 in experiment [1] was below 100 nM; at full-length human BTK, 100 to 1000 nM.

As to `CC(C)(C)c1nc(C(=O)Nc2cccc(-c3ccnc4[nH]c(-c5ccc(N6CCC(F)(F)CC6)cc5)nc34)c2CO)no1` [Example 48, 5-tert-Butyl-N-(3-[2-[4-(4,4-difluoropiperidin-1-yl)phenyl]-3H-imidazo[4,5-b]pyridin-7-yl]-2-(hydroxymethyl)phenyl)-1,2,4-oxadiazole-3-carboxamide], the results for the IC50 (in experiment [1]; on full-length human BTK) were below 100 nM and 100 to 1000 nM, respectively.

Consider `Cc1c(CNC(=O)c2noc(C(C)(C)C)n2)cccc1-c1ccnc2[nH]c(-c3cnn(C)c3)nc12` [Example 88, 5-tert-Butyl-N-([2-methyl-3-[2-(1-methyl-1H-pyrazol-4-yl)-3H-imidazo[4,5-b]pyridin-7-yl]phenyl]methyl)-1,2,4-oxadiazole-3-carboxamide], for which the values for the IC50 (in experiment [1]; at full-length human BTK) were above 5000 nM and 1000 to 5000 nM, respectively.

Take `Cn1cc(-c2nc3c(-c4ccc5c(c4)CN(C(=O)c4nc(C(C)(C)C)no4)C5)ccnc3[nH]2)cn1` [Example 156, (3-tert-Butyl-[1,2,4]oxadiazol-5-yl)-{5-[2-(1-methyl-1H-pyrazol-4-yl)-3H-imidazo[4,5-b]pyridin-7-yl]-1,3-dihydro-isoindol-2-yl}-methanone]: the IC50 was 1000 to 5000 nM in experiment [1] and 100 to 1000 nM on full-length human BTK.

As for `CCn1cc(C(=O)NCc2ccc(-c3ccnc4[nH]c(-c5cnn(C)c5)nc34)cc2F)cn1` [Example 20, 1-Ethyl-1H-pyrazole-4-carboxylic acid 2-fluoro-4-[2-(1-methyl-1H-pyrazol-4-yl)-3H-imidazo[4,5-b]pyridin-7-yl]-benzylamide], the IC50 (in experiment [1]; at full-length human BTK) was below 100 nM each time.

Consider `Cn1cc(-c2nc3c(-c4ccc(CO)c(F)c4)ccnc3[nH]2)cn1` [Example 32, {2-Fluoro-4-[2-(1-methyl-1H-pyrazol-4-yl)-3H-imidazo[4,5-b]pyridin-7-yl]-phenyl}-methanol], for which the IC50 fell in the range of 100 to 1000 nM in experiment [1] and 1000 to 5000 nM at full-length human BTK.

For `Cn1cc(-c2nc3c(-c4ccc(CN5CCOc6cc(C7CC7)cc(F)c6C5=O)cc4CO)ccnc3[nH]2)cn1` [Example 38, 8-Cyclopropyl-6-fluoro-4-[[3-(hydroxymethyl)0-4-[2-(1-methyl-1H-pyrazol-4-yl)-3H-imidazo[4,5-b]pyridin-7-yl]phenyl]methyl]-2,3,4,5-tetrahydro-1,4-benzoxazepin-5-one], the IC50 (in experiment [1]; at full-length human BTK) was 100 to 1000 nM throughout.

Take `Cn1cc(-c2nc3c(-c4ccc5c(c4)CN(C(=O)c4nc(C(C)(C)C)no4)CC5)ccnc3[nH]2)cn1` [Example 155, (3-tert-Butyl-[1,2,4]oxadiazol-5-yl)-{7-[2-(1-methyl-1H-pyrazol-4-yl)-3H-imidazo[4,5-b]pyridin-7-yl]-3,4-dihydro-1H-isoquinolin-2-yl}-methanone]: the IC50 (in experiment [1]; on full-length human BTK) was above 5000 nM each time.

On to `Cn1cc(-c2nc3c(-c4ccc(CNC(=O)CCC(C)(C)C)c(F)c4)ccnc3[nH]2)cn1` [Example 21, 4,4-Dimethyl-pentanoic acid 2-fluoro-4-[2-(1-methyl-1H-pyrazol-4-yl)-3H-imidazo[4,5-b]pyridin-7-yl]-benzylamide], for which the IC50 (in experiment [1]; on full-length human BTK) was below 100 nM in each case.

Take `CC(C)(C)c1noc(C(=O)NCc2ccc(-c3ccnc4[nH]c(C5CCNC(=O)C5)nc34)cc2F)n1` (stereo not drawn) [Example 31, 3-tert-Butyl-[1,2,4]oxadiazole-5-carboxylic acid 2-fluoro-4-[2-(2-oxo-piperidin-4-yl)-3H-imidazo[4,5-b]pyridin-7-yl]-benzylamide]: the values for the IC50 (in experiment [1]; at full-length human BTK) were 100 to 1000 nM and 1000 to 5000 nM, respectively.

Turning to `Cn1cc(-c2nc3c(-c4ccc(CNC(=O)C5CC(OC(C)(C)C)C5)c(F)c4)ccnc3[nH]2)cn1` (stereo not drawn) [Example 60, 3-(tert-Butoxy)-N-([2-fluoro-4-[2-(1-methyl-1H-pyrazol-4-yl)-3H-imidazo[4,5-b]pyridin-7-yl]phenyl]methyl)cyclobutane-1-carboxamide], the IC50 (in experiment [1]; on full-length human BTK) was 100 to 1000 nM each time.

On to `Cn1cc(-c2nc3c(-c4ccc(CNC(=O)c5csc(C(F)(F)F)n5)c(F)c4)ccnc3[nH]2)cn1` [Example 22, 2-Trifluoromethyl-thiazole-4-carboxylic acid 2-fluoro-4-[2-(1-methyl-1H-pyrazol-4-yl)-3H-imidazo[4,5-b]pyridin-7-yl]-benzylamide], for which the IC50 (in experiment [1]; at full-length human BTK) was 100 to 1000 nM each time.

Take `CC(C)(C)c1nnc(C(=O)NCc2ccc(-c3ccnc4[nH]c(-c5cnn(C6COC6)c5)nc34)cc2F)s1` [Example 125, 5-tert-Butyl-[1,3,4]thiadiazole-2-carboxylic acid 2-fluoro-4-[2-(1-oxetan-3-yl-1H-pyrazol-4-yl)-3H-imidazo[4,5-b]pyridin-7-yl]-benzylamide]: the IC50 (in experiment [1]; at full-length human BTK) was below 100 nM throughout.
